Source: patent US11713305B2, “Zinc sensors for in vivo imaging of beta-cell function by MRI” (The Board of Regents of the University of Texas System, priority 2017, dated 2023)

Assay: Kinetic inertness (transmetalation by Zn(II) in phosphate buffer)
Assay type: physicochemical
Conditions: four equivalents of Zn^2+ in phosphate buffer (pH=7), 310 K
Source text: Shortly after the first confirmed clinical cases of nephrogenic systemic fibrosis (NSF), increased efforts have been made to design agents with high thermodynamic stability and kinetic inertness (Kallen et al., 2008; Reilly, 2008; Rofsky et al., 2008; Wiginton et al., 2008; Abujuden et al., 2009). The sensors shown here are very stable macrocyclic DO3A-monoamide derivatives with reported log KML>20. However, given that the agents reported here also have a high affinity for Zn^2+ ions, and Zn^2+ has been implicated as the major competing ion for transmetalation of Gd^3+ agents derived from linear polyamine ligands, the kinetic rate of Gd^3+ release is arguably the most critical factor in determining in vivo toxicity (Laurent et al., 2010). Using a previously published method (Laurent et al., 2010) consisting of incubating each agent with four equivalents of Zn^2+ in phosphate buffer (pH=7), we compared the kinetic stability of the agents reported here with the FDA-approved agent Magnevist® (GdDTPA, cf. FIG. 7).
Kinetic inertness was determined according to published procedures with minor modifications (Laurent et al., 2010; Silverio et al., 2009). Stock solutions of phosphate buffer (67 mM, pH=7.4), Gd(III) chelates (10 mM) and ZnCl2 (231 mM) were prepared first. Calculated volumes of stock solutions or water were pipetted into small glass vials to obtain a test solution of 300 μL with 30 mM phosphate, 1.5 mM Gd(III) chelate, and 6.0 mM Zn(II). Samples were measured 15 minutes after the sample temperature stabilized at 310 K. During the entire experiment, the samples inside the NMR tubes were kept in an incubator at 310 K. The T1 of the solutions was determined at 310 K and 0.47 T (20 MHz) at various time points within 7 days. As a reference, GdDTPA was analyzed under the same conditions. The R1^P relaxation rate is obtained by subtracting the diamagnetic contribution of the water relaxation (0.28 s-1) from the observed relaxation rate R1=(1/T1).

| Structure (SMILES) | kinetic stability against transmetalation |
| --- | --- |
| O=C(O)CN1CCN(CC(=O)O)CCN(CC(=O)NCCN(Cc2ccccn2)Cc2ccccn2)CCN(CC(=O)O)CC1 [GdL1] | kinetically inert |
| O=C(O)CN1CCN(CCC(=O)NCCN(Cc2ccccn2)Cc2ccccn2)CCN(CC(=O)O)CCN(CC(=O)O)CC1 [GdL2] | kinetically inert |

Assay: 17O NMR of Gd complexes (water exchange, SBM fitting)
Assay type: physicochemical
Design: A/ℏ: unit not given here
Conditions: 17O NMR fit; underlined values fixed during fitting
Experimental: Given that the rate of water exchange (kex) in these complexes is likely the limiting factor in determining the magnitude of r1 increase when the GdL-Zn complexes bind to HSA, further temperature dependent ^17O NMR studies were performed to evaluate the water exchange rates. A simultaneous analysis of ^17O reduced T1, T2, and chemical shift (Δωr) data were analyzed (Powell et al., 1996; Gonzalez et al., 1994; Martins et al., 2013; Martins et al., 2015) to estimate the q values, kex, and hyperfine coupling constants for GdL1-5.
^17O NMR experiments were performed at 9.4 T on a Bruker AVANCE III NMR spectrometer. The temperature was regulated by air flow controlled by a Bruker VT unit. The samples ([Gd^3+]=25 mM; [Dy^3+]=1 mM) were prepared in ^17O enriched water (10%) with the pH being maintained at 7.4 with 100 mM Tris buffer. The sample was loaded into a 18 μL spherical bulb (Wilmad-Lab Glass, Vineland, NJ) and placed inside a 5 mm NMR tube containing 400 μL of water to eliminate any susceptibility effects. Longitudinal relaxation rates (1/T1) were obtained by the inversion recovery method and transverse relaxation rates (1/T2) were obtained by the Carr-Purcell—Meiboom—Gill spin echo technique. The acidified water (pH=3.0) containing 10% enriched ^17O water was used as a reference for the measurements. For the DyL4 complexes (no HSA and with HSA+Zinc), acidified water solutions and 1 mM LaL4+3 mM HSA with zinc (1:1) were used as the corresponding references. The corresponding fittings were performed with the Scientist 3.0 software (Micromath®).
^17O NMR data have been analyzed within the framework of Solomon-Bloembergen-Morgan theory.
From the measured ^17O NMR relaxation rates and angular frequencies of the paramagnetic solutions, 1/T1, 1/T2 and ω, and of the acidified water reference, a1/T1A, 1/T2A and ωA, one can calculate the reduced relaxation rates and chemical shifts, 1/7′2, and Δωr, which may be written in Equations (A1)-(A3), where, 1/T1m, 1/T2m, is the relaxation rate of the bound water and Awn, is the chemical shift difference between bound and bulk water molecules, τm is the mean residence time or the inverse of the water exchange rate kex and Pm is the mole fraction of the bound water (Swift and Connick, 1962; Zimmerman and Brittin, 1957).
The outer sphere contributions to the ^17O relaxation rates 1/T1OS and 1/T2OS are being neglected according to previous studies (Micskei et al., 1993). Therefore, Equations (A1-A2) can be further simplified to Equations (A4) and (A5): […]
The exchange rate is supposed to obey the Eyring Equation. In Equation (A6) ΔS^‡ and ΔH^‡ are the entropy and enthalpy of activation for the water exchange process, and kex^298 is the exchange rate at 298.15 K.
In the transverse relaxation, the scalar contribution, 1/T2s, is the most relevant [Equation (A7)]. 1/τsl is the sum of the exchange rate constant and the electron spin relaxation rate [Equation (A8)].
The ^17O longitudinal relaxation rates in Gd^3+ solutions are the sum of the contributions of the dipole-dipole (dd) and quadrupolar (q) mechanisms as expressed by Equations (A11-A13) for non-extreme narrowing conditions, where γS is the electron and γ1 is the nuclear gyromagnetic ratio (γS=1.76×10^11 rad s^−1 T^−1, γ1=˜3.626×107 rad s^−1 T^−1), rGdO is the effective distance between the electron charge and the ^17O nucleus, I is the nuclear spin (5/2 for ^17O), x is the quadrupolar coupling constant and η is an asymmetry parameter:
In Equation (A3) the chemical shift of the bound water molecule, Δωm, depends on the hyperfine interaction between the Gd^3+ electron spin and the ^17O nucleus and is directly proportional to the scalar coupling constant, A/h, as expressed in Equation (A12) (Brittain and Desreux, 1984).
The isotopic Landé g factor is equal to 2.0 for the Gd^3+, B represents the magnetic field, and kB is the Boltzmann constant. […]

| Structure (SMILES) | hyperfine coupling constant (AO/ℏ) |
| --- | --- |
| O=C(O)CN1CCN(CC(=O)O)CCN(CC(=O)NCCN(Cc2ccccn2)Cc2ccccn2)CCN(CC(=O)O)CC1 [GdL1] | −4.0 ± 0.2 ×10^6 rad/s |
| O=C(O)CN1CCN(CCC(=O)NCCN(Cc2ccccn2)Cc2ccccn2)CCN(CC(=O)O)CCN(CC(=O)O)CC1 [GdL2] | −3.7 ± 0.2 ×10^6 rad/s |

Same assay, conditions: 17O NMR, 9.4 T, 310 K

| Structure (SMILES) | water exchange rate kex^310 |
| --- | --- |
| O=C(O)CN1CCN(CC(=O)O)CCN(CC(=O)NCCN(Cc2ccccn2)Cc2ccccn2)CCN(CC(=O)O)CC1 [GdL1] | 2.9 ± 0.1 ×10^6 s^−1 |
| O=C(O)CN1CCN(CCC(=O)NCCN(Cc2ccccn2)Cc2ccccn2)CCN(CC(=O)O)CCN(CC(=O)O)CC1 [GdL2] | 100 ± 1 ×10^6 s^−1 |

Same assay, conditions: best-fit, 17O NMR, [Gd^3+]=25 mM, 9.4 T

| Structure (SMILES) | ΔH‡ |
| --- | --- |
| O=C(O)CN1CCN(CC(=O)O)CCN(CC(=O)NCCN(Cc2ccccn2)Cc2ccccn2)CCN(CC(=O)O)CC1 [GdL1] | 10.6 ± 0.239 kcal/mol |
| O=C(O)CN1CCN(CCC(=O)NCCN(Cc2ccccn2)Cc2ccccn2)CCN(CC(=O)O)CCN(CC(=O)O)CC1 [GdL2] | 10.9 ± 0.263 kcal/mol |

Same assay, conditions: best-fit, 17O NMR; activation energy of rotational correlation time

| Structure (SMILES) | ER |
| --- | --- |
| O=C(O)CN1CCN(CC(=O)O)CCN(CC(=O)NCCN(Cc2ccccn2)Cc2ccccn2)CCN(CC(=O)O)CC1 [GdL1] | 4.95 ± 0.048 kcal/mol |
| O=C(O)CN1CCN(CCC(=O)NCCN(Cc2ccccn2)Cc2ccccn2)CCN(CC(=O)O)CCN(CC(=O)O)CC1 [GdL2] | 4.09 ± 0.048 kcal/mol |

Same assay, conditions: best-fit, 17O NMR; rotational correlation time

| Structure (SMILES) | τRO^298 |
| --- | --- |
| O=C(O)CN1CCN(CC(=O)O)CCN(CC(=O)NCCN(Cc2ccccn2)Cc2ccccn2)CCN(CC(=O)O)CC1 [GdL1] | 280 ± 11 ps |
| O=C(O)CN1CCN(CCC(=O)NCCN(Cc2ccccn2)Cc2ccccn2)CCN(CC(=O)O)CCN(CC(=O)O)CC1 [GdL2] | 320 ± 11 ps |

Same assay, conditions: best-fit, 17O NMR; scalar coupling constant

| Structure (SMILES) | A/ℏ |
| --- | --- |
| O=C(O)CN1CCN(CC(=O)O)CCN(CC(=O)NCCN(Cc2ccccn2)Cc2ccccn2)CCN(CC(=O)O)CC1 [GdL1] | −4.0 ± 0.1 |
| O=C(O)CN1CCN(CCC(=O)NCCN(Cc2ccccn2)Cc2ccccn2)CCN(CC(=O)O)CCN(CC(=O)O)CC1 [GdL2] | −3.7 ± 0.2 |

Same assay, conditions: best-fit, 17O NMR; sometimes fixed

| Structure (SMILES) | EV | Δ^2 | τV^298 |
| --- | --- | --- | --- |
| O=C(O)CN1CCN(CC(=O)O)CCN(CC(=O)NCCN(Cc2ccccn2)Cc2ccccn2)CCN(CC(=O)O)CC1 [GdL1] | 0.263 ± 0.024 kcal/mol | 0.10 ± 0.01 10^20 s^−2 | 4.6 ± 0.1 ps |
| O=C(O)CN1CCN(CCC(=O)NCCN(Cc2ccccn2)Cc2ccccn2)CCN(CC(=O)O)CCN(CC(=O)O)CC1 [GdL2] | 0.263 ± 0.0024 kcal/mol | 0.13 ± 0.01 10^20 s^−2 | 7.1 ± 0.1 ps |

Same assay, conditions: compared with GdL1 and GdL4

| Structure (SMILES) | faster water exchange rates |
| --- | --- |
| O=C(O)CN1CCN(CCC(=O)NCCN(Cc2ccccn2)Cc2ccccn2)CCN(CC(=O)O)CCN(CC(=O)O)CC1 [GdL2] | ~30 fold |

Same assay, conditions: fitted

| Structure (SMILES) | empirical constant describing the outer sphere contribution to the 17O chemical shift, Cos |
| --- | --- |
| O=C(O)CN1CCN(CCC(=O)NCCN(Cc2ccccn2)Cc2ccccn2)CCN(CC(=O)O)CCN(CC(=O)O)CC1 [GdL2] | 0.1 |

Same assay, conditions: slowest exchange rates; in 1/s

| Structure (SMILES) | water exchange rate kex |
| --- | --- |
| O=C(O)CN1CCN(CC(=O)O)CCN(CC(=O)NCCN(Cc2ccccn2)Cc2ccccn2)CCN(CC(=O)O)CC1 [GdL1] | ~3 ×106 5-1 |
